In patent US10590389B2, “Endodermal cell production method, liver cell production method, pancreatic cell production method, endodermal cell induction promoter, liver cell induction promoting kit, pancreatic cell induction promoting kit, and microfluidic device” (Kyoto University, priority 2014, dated 2020):

Assays:
Assay type in all cases: cell-based
[1] = tested on: H9 cell line (human ES cell); assay: Endodermal cell induction from pluripotent cells with or without ROCK activity inhibitory compound (Example 8)
Protocol: On a 24-well dish (growth area: 1.9 cm^2/well, BD Falcon [trademark]), a H9 cell line (obtained from WiCell), which is a human ES cell, was seeded in a dispersed state at a cell density of 1×10^5 cells/well and cultured for 24 hours. The culture conditions were set as follows: 37° C. and 5% CO2. As a culture solution, mTeSR-1 (STEMCELL) containing 10 μmol/l Y27632 (ROCK activity inhibitory compound, Wako) and 100 ng/ml activin A (R&D Systems) was used. To the mTeSR-1A, a penicillin-streptomycin solution (Wako) had been added beforehand so that the mTeSR-1 contained 100 U/ml penicillin and 100 U/ml streptomycin. After the culture, the culture solution used on culture day 1 was removed, and a culture solution with the same composition was further added to each well. The cells were further cultured for one day under the above-described culture conditions. The culture solution used on culture day 2 was removed, and mTeSR-1 containing 10 μmol/l Y27632, 100 ng/ml activin A, 10 ng/ml BMP-4 (R&D Systems), 10 μmol/l LY294002 (PI3K activity inhibitory compound, CAYMAN CHEMICAL COMPANY), and 3 μmol/l CHIR99021 (GSK-3β activity inhibitory compound, STEMGENT) was added. Then, the cells were cultured for 24 hours under the above-described culture conditions. […]

[2] = tested on: H9 cell line (human ES cell); assay: CXCR4 expression in induced endodermal cells by flow cytometry; conditions: dispersed or cluster-forming H9 cells, 10 μmol/l Y27632, under any of these conditions
Protocol: On a 24-well dish (growth area: 1.9 cm^2/well, BD Falcon [trademark]), a H9 cell line (obtained from WiCell), which is a human ES cell, was seeded in a dispersed state at a cell density of 1×10^5 cells/well and cultured for 24 hours. The culture conditions were set as follows: 37° C. and 5% CO2. As a culture solution, mTeSR-1 (STEMCELL) containing 10 μmol/l Y27632 (ROCK activity inhibitory compound, Wako) and 100 ng/ml activin A (R&D Systems) was used. To the mTeSR-1A, a penicillin-streptomycin solution (Wako) had been added beforehand so that the mTeSR-1 contained 100 U/ml penicillin and 100 U/ml streptomycin. […] CXCR4 expression in the stained cells was measured using a flow cytometer (BD FACSCanto [trademark] II, BD Biosciences). CXCR4 expression was also measured in the same manner, except that, from culture day 1 to culture day 4, TeSR-E8 or CDM-PVA was used instead of the mTeSR-1. Further, CXCR4 expression was measured in the same manner, except that, instead of the H9 cell line in the dispersed state, the H9 cell line forming cell clusters was seeded on culture day 1. As a control, CXCR4 expression was measured in the same manner, except that an APC-labeled control antibody (clone name: G155-178, BD Pharmigen) was used instead of the anti-human CXCR4 antibody. […] CXCR4 expression in the thus-obtained endodermal cells was measured in the same manner as in (2) in Example 1. […]

[3] = tested on: H9 cell line (human ES cell); assay: Number of endodermal cells produced after induction; conditions: Example 2; seeding 5×10^4 to 2×10^5 cells/well; dispersed or clusters; 10 μmol/l Y27632; under any of these conditions
Protocol: Differentiation into endodermal cells was induced in the same manner as in Example 1, except that the H9 cell line was seeded at a cell density of 5×10^4 cells/well, 1×10^5 cells/well, or 2×10^5 cells/well. Also, differentiation into endodermal cells was induced in the same manner, except that, instead of the H9 cell line in the dispersed state, a H9 cell line forming cell clusters was seeded. Then, the endodermal cells obtained after the induction were collected. The endodermal cells obtained in (1) above were counted.

With C[C@@H](N)[C@H]1CC[C@H](C(=O)Nc2ccncc2)CC1 [Y27632] the probability of induction ([1]; endodermal cell induction examined on culture day 5, 10 μmol/l Y27632 on culture days 1-4) was 100%, the “Number of times endodermal cell induction was performed” value ([1]; successful inductions / total inductions, examined on culture day 5, 10 μmol/l Y27632 on culture days 1-4 with activin A, BMP-4, LY294002, CHIR99021) was 20/20 and the “proportion of the cells positive to the endoderm cell marker CXCR4” value ([2]; Example 1, after culture day 5, mTeSR-1, TeSR-E8 or CDM-PVA) was no less than 80.5%. For the same compound, the “proportion of the cells positive to the endoderm cell marker CXCR4” value ([2]; Example 2, seeding 5×10^4, 1×10^5 or 2×10^5 cells/well) was no less than 83.7% and the “number of the endodermal cells obtained after the induction relative to the number of cells of the H9 cell line at the start of the induction” value [3] was “at least six”.
